Like-named read-outs stand apart in the source and are kept apart here.
Experiments:
[1] = tested on: PD1-ss+10aa/Gaussia Luciferase; assay: Dox-Induced PD1-ss-Gluc Assay; assay type: cell-based; conditions: 24 hr Dox induction, 293FRT/TO cells, read-out: 24 hr Dox Inducible PD1ssGluc 293FRT/TO: Mean IC50
In short: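 Doxycycline-induced expression of a PD1-ss+10aa/Gaussia luciferase reporter is measured in stable Flp-In 293 T-REx cells. Compound dilutions containing doxycycline are added one day after plating and incubated at 37 °C, 5% CO2. Values for unassigned stereocentres refer to stereoisomer mixtures.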

[2] = Liver Microsome Stability Assay (human); conditions: human liver microsomes, with NADPH, 1.0 uM compound
Protocol: (§1) Stability of a compound was assessed in the presence of liver microsomes from various sources—mouse, rat, monkey and human liver microsomes. 1.0 uM compound, 0.4% DMSO in 0.1 M Potassium Phosphate with 1.0 mg/mL liver microsomes, were incubated at 37° C. with or without 1 mM NADPH. The samples were quenched at 0, and 30 minutes.

[3] = tested on: multiple myeloma cell line NCI-H929; assay: H929 Cell Viability Assay; assay type: cell-based, human; conditions: Homo sapiens, NCI-H929, 48 h, NCI-H929 cells, Celltiter-Glo
In short: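 Plate the myeloma cells in RPMI 1640 with 10% FBS, add serially diluted compound, incubate for 48 hours at 37° C, then add CellTiter-Glo and read luciferase signal.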

[4] = tested on: IL-2-FL/Gaussia Luciferase; assay: Dox Induced IL2-FL-Gluc Assay; assay type: cell-based; conditions: for IC50: 24 hr Dox induction, 293FRT/TO cells, read-out: 24 hr Dox Inducible IL2FLGluc 293FRT/TO: Mean IC50; for 24 hr Dox Inducible IL2FLGluc 293FRT/TO: IL2/PD1: ratio of IL2FLGluc IC50 to PD1ssGluc IC50
In short: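 Reporter is Gaussia luciferase fused to the 3′ end of full-length IL-2 (aa 1-153), expressed from a doxycycline-inducible T-REx construct in stably selected Flp-In 293 cells. Compounds were co-added with doxycycline and incubated at 37° C, 5% CO2.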

[5] = Liver Microsome Stability Assay (mouse); conditions: mouse liver microsomes, with NADPH, 1.0 uM compound
Protocol: as §1

[6] = Liver Microsome Stability Assay (monkey); conditions: monkey liver microsomes, with NADPH, 1.0 uM compound
Protocol: as §1

[7] = tested on: TNFα-FL/Gaussia Luciferase; assay: Dox Induced TNFα-FL-Gluc Assay; assay type: cell-based; conditions: for IC50: 24 hr Dox induction, 293FRT/TO cells, read-out: 24 hr Dox Inducible TNFaFLGluc 293FRT/TO: Mean IC50; for 24 hr Dox Inducible TNFaFLGluc 293FRT/TO: TNF/PD1: ratio of TNFaFLGluc IC50 to PD1ssGluc IC50
In short: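 Cells are seeded one day ahead, then treated with compound plus doxycycline at 37 °C, 5% CO2. The stable Flp-In 293 T-REx line expresses full-length TNFα (amino acids 1-233) with Gaussia luciferase fused to its 3′ end, inducibly via T-REx.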

[8] = tested on: HER3-ss+4aa/Gaussia Luciferase; assay: Dox-Induced Her3-ss-Gluc Assay; assay type: cell-based; conditions: 24 hr Dox induction, 293FRT/TO cells, read-out: 24 hr Dox Inducible Her3(ss + 4)Gluc 293FRT/TO: Mean IC50
In short: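 Expression of a Gaussia luciferase reporter carrying the HER3 signal sequence plus 4 amino acids is induced by doxycycline in stably transfected Flp-In 293 T-REx cells. Compounds are added with doxycycline at 37° C., 5% CO2. Undefined stereocentres denote stereoisomer mixtures.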

[9] = tested on: multiple myeloma cell line U266B1; assay: U266 Cell Viability Assay; assay type: cell-based, human; conditions: Homo sapiens, U-266, 48 h, U266B1 cells, Celltiter-Glo
In short: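 48 h treatment, 37° C./5% CO2, RPMI 1640 + 10% FBS; viability by CellTiter-Glo luminescence.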

[10] = Liver Microsome Stability Assay (rat); conditions: rat liver microsomes, with NADPH, 1.0 uM compound
Protocol: as §1

[11] = '<=>' given where both are I.A.

IC50 [1] | Liver Microsome Stability (Multiple Species): Human - % Remaining after 30 min w/NADPH [2] | EC50 [3] | IC50 [4] | Liver Microsome Stability (Multiple Species): Mouse - % Remaining after 30 min w/NADPH [5] | Liver Microsome Stability (Multiple Species): Monkey - % Remaining after 30 min w/NADPH [6] | IC50 [7] | IC50 [8] | EC50 [9] | Liver Microsome Stability (Multiple Species): Rat - % Remaining after 30 min w/NADPH [10] | IC50 ([1]; mean) | IC50 ([4]; mean) | IC50 ([7]; mean) | IC50 ([8]; mean) | Structure (SMILES) | 24 hr Dox Inducible IL2FLGluc 293FRT/TO: IL2/PD1 [4] | 24 hr Dox Inducible TNFaFLGluc 293FRT/TO: TNF/PD1 [7] | 24 hr Dox Inducible IL2FLGluc 293FRT/TO: IL2/PD1 [4, 11] | 24 hr Dox Inducible TNFaFLGluc 293FRT/TO: TNF/PD1 [7, 11]
> 25 µM | 9.45% | > 25 µM | > 25 µM | 61.7% | 5.79% | > 25 µM | > 25 µM | > 25 µM | 75.4% | – | – | – | – | CC(CC(N)=O)n1cnc(/C=C/c2csc(NC(=O)c3cccn3Cc3ccnc(F)c3)n2)c1 (stereo not drawn) [Compound B111, (E)-N-(4-(2-(1-(4-amino-4-oxobutan-2-yl)-1H-imidazol-4-yl)vinyl)thiazol-2-yl)-1-((2-fluoropyridin-4-yl)methyl)-1H-pyrrole-2-carboxamide] | <=>1.0 | ⇔1.00 | – | –
0.217 µM | 1.7% | > 25 µM | > 25 µM | 66.5% | 1.11% | > 25 µM | > 25 µM | > 25 µM | 41.8% | – | – | – | – | N#CCn1cnc(/C=C/c2csc(NC(=O)c3cccn3Cc3ccnc(F)c3)n2)c1 [Compound B112, (E)-N-(4-(2-(1-(cyanomethyl)-1H-imidazol-4-yl)vinyl)thiazol-2-yl)-1-((2-fluoropyridin-4-yl)methyl)-1H-pyrrole-2-carboxamide] | >110 | >115 | – | –
> 25 µM | 7.08% | > 25 µM | > 25 µM | 68.2% | 3.11% | > 25 µM | > 25 µM | > 25 µM | 69.7% | – | – | – | – | CC(C(N)=O)n1cnc(/C=C/c2csc(NC(=O)c3cccn3Cc3ccnc(F)c3)n2)c1 (stereo not drawn) [Compound B113, (E)-N-(4-(2-(1-(1-amino-1-oxopropan-2-yl)-1H-imidazol-4-yl)vinyl)thiazol-2-yl)-1-((2-fluoropyridin-4-yl)methyl)-1H-pyrrole-2-carboxamide] | <=>1.0 | <=>1.00 | – | –
5.26 µM | 30.7% | > 25 µM | > 25 µM | 59.3% | 43.4% | > 25 µM | > 25 µM | > 25 µM | 27.3% | – | – | – | – | O=C(Nc1nc(/C=C/c2c[nH]cn2)cs1)c1cccn1Cc1ccnc(F)c1 [Compound B114, (E)-N-(4-(2-(1H-imidazol-4-yl)vinyl)thiazol-2-yl)-1-((2-fluoropyridin-4-yl)methyl)-1H-pyrrole-2-carboxamide] | >4.8 | >4.76 | – | –
> 25 µM | 12.8% | > 25 µM | > 25 µM | 70.7% | 11.5% | > 25 µM | > 25 µM | > 25 µM | 30% | – | – | – | – | NC(=O)Cn1cnc(/C=C/c2csc(NC(=O)c3cccn3Cc3ccnc(F)c3)n2)c1 [Compound B115] | <=>1.0 | <=>1.00 | – | –
– | 0.16% | 8.45 µM | – | 11.3% | 0.16% | – | – | 9.48 µM | 8.66% | 0.0105 µM | 5.27 µM | 18.8 µM | 3.69 µM | Cc1c(/C=C/c2csc(NC(=O)c3cccn3Cc3ccnc(F)c3)n2)ncn1C(C)C [Compound B116, (E)-1-((2-fluoropyridin-4-yl)methyl)-N-(4-(2-(1-isopropyl-5-methyl-1H-imidazol-4-yl)vinyl)thiazol-2-yl)-1H-pyrrole-2-carboxamide] | – | – | 500 | 1780
– | 0.29% | 16.9 µM | – | 15.8% | 0.22% | – | – | 21.2 µM | 4.95% | 0.0318 µM | > 25 µM | 23.6 µM | > 25 µM | CCn1cnc(/C=C/c2csc(NC(=O)c3cccn3Cc3ccnc(F)c3)n2)c1C [Compound B117, (E)-N-(4-(2-(1-ethyl-5-methyl-1H-imidazol-4-yl)vinyl)thiazol-2-yl)-1-((2-fluoropyridin-4-yl)methyl)-1H-pyrrole-2-carboxamide] | – | – | >790 | 743
– | 0.37% | > 25 µM | – | 40.4% | 0.21% | – | – | > 25 µM | 14.9% | 0.247 µM | > 25 µM | > 25 µM | > 25 µM | Cc1c(/C=C/c2csc(NC(=O)c3cccn3Cc3ccnc(F)c3)n2)ncn1C(C)CO (stereo not drawn) [Compound B118, (E)-1-((2-fluoropyridin-4-yl)methyl)-N-(4-(2-(1-(1-hydroxypropan-2-yl)-5-methyl-1H-imidazol-4-yl)vinyl)thiazol-2-yl)-1H-pyrrole-2-carboxamide] | – | – | >100 | >101
– | 0.15% | 13.1 µM | – | 2.37% | 0.1% | – | – | 15.6 µM | 0.7% | 0.0511 µM | 10.1 µM | 21.3 µM | 8.9 µM | CCOC(=O)C(C)n1cnc(/C=C/c2csc(NC(=O)c3cccn3Cc3ccnc(F)c3)n2)c1C (stereo not drawn) [Compound B119, ethyl (E)-2-(4-(2-(2-(1-((2-fluoropyridin-4-yl)methyl)-1H-pyrrole-2-carboxamido)thiazol-4-yl)vinyl)-5-methyl-1H-imidazol-1-yl)propanoate] | – | – | 200 | 418

Reference: US20230286973A1, “PROTEIN SECRETION INHIBITORS” (KEZAR LIFE SCIENCES, priority 2020, published 2023)
